Assay results published in article PMC12466456, “Isolation, Characterization, Antioxidant and Anticancer Activities of Compounds from Erythrina caffra Stem Bark Extract” (Antioxidants, 2025).
Values after ≈ are worked out from the molar mass of the structure shown. Where two headings read alike, the source gives them in different places.

Tests used:
HEK293 cells = assay: MTT cytotoxicity assay, HEK293; assay type: cell-based; conditions: Homo sapiens
Procedure: (§1) Cytotoxicity was evaluated using the MTT (3-(4,5-dimethylthiazol-2-yl)-2,5-diphenyltetrazolium bromide) assay to measure cell viability after treatment with the plant extracts. This assay measures the percentage viability of a cell population by monitoring the ability of the NAD(P)H-dependent oxidoreductase enzyme system in live cells to reduce MTT to formazan, an insoluble purple form of the dye. […] The medium was replaced with fresh medium, and the extracts were added in varying concentrations (50–250 µg/mL). The plates were incubated at 37 °C in 5% CO2 for 48 h. At the end of the incubation period, the spent medium was discarded and replaced with 100 µL fresh medium containing 10 µL (5 mg/mL in PBS) MTT reagent. The cells were then incubated for an additional 4 h. The MTT/medium was subsequently removed, and 100 μL DMSO was added to solubilize the formazan dye product. Absorbance at 570 nm was assessed using a microplate reader (Vacutec, Hamburg, Germany). Cell viability was calculated as in Equation (2).(2) Cell viability (%)=At/Ac×100 where At = absorbance of test or treated cells and Ac = absorbance of control or untreated cells.

MCF-7 cells [1] = assay: MTT cytotoxicity assay, MCF-7; assay type: cell-based, human; conditions: for IC50: Homo sapiens
Procedure: as §1

HeLa cells [2] = assay: MTT cytotoxicity assay, HeLa; assay type: cell-based, human; conditions: for IC50: Homo sapiens, HeLa
Procedure: as §1

HeLa cells [3] = assay: Muse MultiCaspase assay, HeLa; assay type: cell-based, human; conditions: 100 µg/mL, 48 h, Figure 5a
Procedure: (§2) The multicaspase assay was performed using the Muse MultiCaspase kit, which can detect the presence of multiple caspases (caspase-1, 3, 4, 5, 6, 7, 8, and 9). The kit utilizes a derivatized VAD peptide that can detect the activity of multiple caspases and a dead cell dye that provides information on membrane integrity or cell death. Cells were seeded into 48-well plates at a density of 1.0 × 10^5 cells/well and allowed to attach over 24 h. Subsequently, 100 µg/mL of the isolated fractions were added, and the cells were incubated for 48 h. The cells were then trypsinized and reconstituted in 1 × caspase buffer. Approximately 5 μL of the Muse™ MultiCaspase working solution was added to 50 μL of cell suspension and incubated at 37 °C for 30 min. Thereafter, 150 μL of 7-AAD working solution was added, mixed thoroughly, and analyzed using the Muse™ cell analyzer (Luminex Corporation, Austin, TX, USA).

MCF-7 cells [4] = assay: Muse MultiCaspase assay, MCF-7; assay type: cell-based, human; conditions: 100 µg/mL, 48 h, Figure 5b
Procedure: as §2

MCF-7 cells [5] = assay: AO/EB dual staining for apoptosis, MCF-7; assay type: cell-based, human; conditions: 48 h; 250 µg/mL (method) or 100 µg/mL (Figure 3 legend)
Procedure: A qualitative assessment of apoptosis induction in cancer cells was conducted by the acridine orange-ethidium bromide (AO/EB) dual staining method, as described previously [13, 14]. Confluent cells (4.0 × 10^3 cells/well) were trypsinized and seeded into 48-well plates and incubated for 24 h at 37 °C in 5% CO2. Subsequently, the spent medium was replaced, and cells were incubated for a further 48 h with the extracts or standard drug (5-fluorouracil) at a concentration of 250 µg/mL. The cells were rinsed twice with cold PBS, and 15 µL of the AO/EB dye mixture (0.1 mg/mL: 0.1 mg/mL) was added, and the cells were incubated for 5 min at ambient temperature. The cells were washed with PBS to remove excess dye and then visualized under an Olympus fluorescence microscope (Wirsam Scientific and Precision Equipment Ltd., Johannesburg, South Africa). Images were captured using a CC12 fluorescence camera and Analysis Five Software (Olympus Soft Imaging Solutions, Olympus, Tokyo, Japan) at 200× magnification.

[6] = DPPH radical scavenging assay; assay type: biochemical; conditions: crude extracts/ascorbic acid 50-250 µg/mL, 30 min, 517 nm
Procedure: The antioxidant potential of the crude extracts was evaluated by measuring their DPPH radical scavenging activity following the protocol described by Bukhari et al.. […] A control well containing 5% dimethyl sulfoxide (DMSO) and DPPH was run concurrently. The samples were incubated in the dark for 30 min at room temperature. The absorbance was read against a DMSO blank at a wavelength of 517 nm using a microplate reader.

[7] = HEK293, isolated compounds/fractions, read-out: IC50 HEK293 (isolated compounds)
[8] = MCF7, MTT, isolated compounds/fractions, read-out: IC50 MCF-7 (isolated compounds)
[9] = MTT, isolated compounds/fractions
[10] = isolated compounds/fractions, read-out: IC50 HeLa (isolated compounds)

SMILES	IC50 (HEK293 cells; [7]) [µg/mL]	IC50 (MCF-7 cells [1]; [8]) [µg/mL]	IC50 MCF-7 (isolated compounds) (MCF-7 cells [1]; [9]) [µg/mL]	IC50 (HeLa cells [2]; [10]) [µg/mL]	caspase activation in HeLa cells (HeLa cells [3])	caspase activation in MCF-7 cells (MCF-7 cells [4])	also measured
CCCCCCCCCCCCCCOC(=O)/C=C/c1ccc(OC)c(O)c1 [Tetradecyl isoferulate, tetradecyl isoferulate]	141 (≈ 360 µM)	124 (≈ 317 µM)	123.6174 (≈ 317 µM)	170 (≈ 435 µM)	pronounced caspase activation potential	pronounced caspase activation potential	
O=c1[nH]cc(F)c(=O)[nH]1 [Compound 5-FU, 5-Fluorouracil, reference compound]							IC50 (HEK293 cells; 48 h, HEK293 served as normal cells, read-out: IC50 HEK293 (crude extracts)): 54.5 µg/mL (≈ 419 µM); IC50 (MCF-7 cells [1]; MCF7, 48 h, MTT, 48 h, read-out: IC50 MCF-7 (crude extracts)): 148 µg/mL (≈ 1140 µM); IC50 (HeLa cells [2]; 48 h, read-out: IC50 HeLa (crude extracts)): 510 µg/mL (≈ 3920 µM); AO/EB fluorescence / apoptosis in MCF-7 cells (MCF-7 cells [5]): red fluorescence
O=C1O[C@H]([C@@H](O)CO)C(O)=C1O [Ascorbic acid, ascorbic acid]							IC50 DPPH radical scavenging [6]: 84.37 µg/mL (≈ 479 µM)
CCCCCCCCCCCCCCCCCCCCCO [1-Heneicosanol, 1-heneicosanol]	372 (≈ 1190 µM)	1980 (≈ 6330 µM)		4010 (≈ 12800 µM)			
CCCCCCCCCCCCCCCCCCCCCCCCCCOC(=O)/C=C/c1ccc(OC)c(O)c1 [n-Hexacosanyl isoferulate]	316 (≈ 566 µM)	58.8 (≈ 105 µM)	58.84 (≈ 105 µM)	147 (≈ 262 µM)	pronounced caspase activation potential	pronounced caspase activation potential	IC50 MCF-7 (isolated compounds) (MCF-7 cells [1]; MTT, isolated compounds/fractions, listed as n-hexacosanyl isoferulate): 58.8 µg/mL (≈ 105 µM); IC50 HeLa (isolated compounds) (HeLa cells [2]; isolated compounds/fractions): 146.63 µg/mL (≈ 262 µM)
